Experimental data reported in publication PMC5570892, “Indole-based perenosins as highly potent HCl transporters and potential anti-cancer agents” (Scientific Reports, 2017).
Like-named read-outs stand apart in the source and are kept apart here.

Tests used:
[1] = 1H NMR titration chloride binding studies; conditions: for Overall association constant β21 for the 2:1 host:guest complex: calculated by multiplying K 11 and K 21; for partial protonation of the imine nitrogen: one mole equivalent of HPF6, DMSO-d6/0.5% H2O; for Association constant of Cl^− in the presence of HPF6 (1 equiv.), 1:1 (K a) / Association constant of Cl^− in the presence of HPF6 (1 equiv.), 2:1, K 11 / Association constant of Cl^− in the presence of HPF6 (1 equiv.), 2:1, K 21: protonated perenosin, TBA-Cl, DMSO-d6/0.5% H2O, 298 K; for Association constant of Cl^− in the presence of HPF6 (1 equiv.), 1:1 (K a): 1:1 binding model; for Association constant of Cl^− in the presence of HPF6 (1 equiv.), 2:1, K 11 / Association constant of Cl^− in the presence of HPF6 (1 equiv.), 2:1, K 21: 2:1 binding model
Experimental: Proton NMR titrations were performed in DMSO-d 6/0.5% H2O, to assess the ability of compounds 1d and 2–8 to bind chloride, added as the tetrabutylammonium (TBA) salt, in solution. […] However, in the presence of one equivalent of HPF6, strong binding to chloride was observed through downfield shifts of the pyrrole-NH, indole-NH and the protonated imine-NH^+. All three resonances were fitted globally to the 1:1 or 2:1 (sandwich) binding models using Bindfit[48].
S8. 1H NMR Titration Binding Studies
S8.1. Equipment and Sample Preparation
1H NMR titrations were performed on a Bruker Avance AVII400 FT -NMR spectrometer with either SEF 1H/D-19F or DUL D/1H-13C, 5 mm z-gradient probes, operating at a frequency of 400 MHz for 1H NMR with the probe temperature maintained at 298 K unless otherwise stated as determined using a variable temperature unit ([…]). For all NMR titrations, a constant host concentration w as maintained (~ 5.0 mM) by using the host solution to dissolve the guest to make the guest stock solution. Over the course of the titration Hamiltonian Microlitre syringes were used to add aliquots of the guest stock solution to the NMR sample of the host solution.
The anions were added as the tetrabutylammonium (TBA) salts after being dried under high vacuum (< 1.0 mmHg) for 24 h. Stock solutions of the host ( ~ 5.0 mM) were prepared in a DMSO -d6/0.5%H2O mixture. In some titrations, protonation of the host species was achieved through the addition of 1 eq. hexafluorophosphoric acid (HPF6) to the host stock solution. The host stock solutions, with or without addition of HPF6, ( 500 μL) were transferred to an air -tight screw-cap NMR sample tube (5 mm ID) and the same host stock solution was used to prepare the standard guest titrant solution containing approximately 100 mM of the TBA-anion salts. T his ensured a constant concentration of the host (~ 5.0 mM) for the duration of the titration experiment.
S8.2. Titration Procedure
Over the course of the titration small aliquots (2 -100 μL) of the standard guest solution were added to the host solution ( ~ 500 μL) in the NMR tube. For ea ch titration 15 -20 data points were collected and at the end of the titration approximately 10 equivalents of the guest anion salt were present.
Upon each addition of the standard guest solution the samples were thoroughly shaken in the NMR tube and then allowed to equilibrate for up to 2 minutes inside the NMR probe before the spectra were taken. Throughout each titration experiment all parameters of the NMR s pectrometer […]
S8.3. Titration Data Fitting
For each 1H NMR titration, all the proton resonances were monitored for changes in chemical shift.
In the case of protonated host species at least one proton resonance was followed and for the neutral host species two or more proton resonances were followed, which allowed several data sets to use in determination of the association constant (Ka). Global fitting takes into account all data sets at the same time and this improves the quality of the nonlinear curve fitting. The supramolecular.org web applet10 was used to fit the collected titration data and allows the use of different binding models to fit the data in the best way. For compounds 1d and 2-8 firstly the 1:1 […]
cooperative or additive, was used. The quality of fit is determined by the covariance of the fit (covfit), which is calculated by dividing the (co)variance of the residual (experimental data − calculated data) with the covariance of the experimental data. A covariance of fit factor (F covfit) can be obtained by dividing the covfir from the 1:1 binding model by the covfit from the 2:1 binding model. Due to the higher number of parameters from the 2:1 binding model an improvement in the covfit (i.e. F covfit)

MDA-MB-231 cells = test: MTT cell viability assay; assay type: cell-based; conditions: Homo sapiens, error from three repeats in brackets
Experimental: Herein, we carried out further in vitro studies at the University of Barcelona for the full library of perenosins. Single dose screening for cell viability using the methylthiazoletetrazolium (MTT) colorimetric assay over five different cell lines (cancer cells MCF-7, MDA-MB-231, A549 and SW620, and non-cancerous human cells MCF-10A) was conducted.
While perenosin 5, with pentyl substituent at R3, has similar cell viability effects as 1d, bis-indole perenosin 7 with pentyl substituent at R1 has a moderate degree of late onset by a factor of 7.
S11.1 Cell Lines and Culture Conditions
The human cell lines were obtained from the American Type Culture Collection (ATCC, Manassas VA). Breast adenocarcinoma MDA-MB-231 and MCF-7 cells were maintained in DMEM:F12 media (1:1; Biological Industries, Beit Haemek, Israel), and 10 µg/ml insulin and 50 µM sodium pyruvate from Sigma-Aldrich Chemical Co. (St. Louis, MO) were added to MCF-7 cells. Lung adenocarcinoma A549 and colorectal adenocarcinoma SW620 cells were cultured in DMEM media. All were supplemented with 10% foetal bovine serum (FBS; Invitrogen-Life Technologies, Carlsbad, CA) and 100 U/mL penicillin, 100 µg/mL streptomycin and 2 mM L-glutamine, all from Biological Industries.
Mammary epithelial MCF-10A cells were maintained in DMEM:F12 media supplemented with 5% horse serum (Life Technologies), 20 ng/ml EGF, 0.5 µg/ml Hydrocortisone, 100 ng/ml Cholera toxin, 10 µg/ml insulin all from Sigma-Aldrich and 100 U/ml penicillin, 100 µg/ml streptomycin, and 2 mM L- glutamine (Biological Industries). Cells were grown at 37 °C under a 5% CO2 atmosphere.
S11.2 Cell Viability Assays
Cell viability was evaluated using the methylthiazoletetrazolium (MTT) colorimetric assay. Cancer cells (MCF-7, MDA-MB-231, A549 and SW620) or non-cancerous human cells MCF-10A cells were harvested (10^4 cells/well) in 96-well plates in a final volume of 100 µl and allowed to grow overnight.
After 24 h, vehicle solution (DMSO) or experimental compounds were added at 10 µM (single point experiment) or at different ranging concentrations (0.8-100 µM) to the assay plate and were incubated for 24 or 72 h. Then, 10 µl of MTT (5 mg/ml; Sigma-Aldrich) were added and the plates were incubated for 4 h at 37°C. 100 µl of DMSO (Sigma-Aldrich) were added to dissolve crystals and the reading was taken spectrophotometrically at 570 nm using a multi-well plate reader (Multiskan FC, Thermo Scientific, Waltham, MA, USA). Cell viability and inhibitory concentration (IC) values were obtained using GraphPad Prism v5.0 (Graphpad Software, San Diego, CA, USA). All data are shown as the mean value ± standard deviation (S.D.) of three independent experiments.

[2] = MDA-MB-231, 24 h exposure, read-out: IC50 (24 h)
[3] = MDA-MB-231, 72 h exposure, read-out: IC50 (72 h)

SMILES | Overall association constant β21 for the 2:1 host:guest complex [1] | partial protonation of the imine nitrogen [1] | Association constant of Cl^− in the presence of HPF6 (1 equiv.), 1:1 (K a) [1] | Association constant of Cl^− in the presence of HPF6 (1 equiv.), 2:1, K 11 [1] | Association constant of Cl^− in the presence of HPF6 (1 equiv.), 2:1, K 21 [1] | IC50 (MDA-MB-231 cells; [2]) | IC50 (MDA-MB-231 cells; [3])
CCCCCc1cc(/N=C/c2[nH]c3ccccc3c2C)c2[nH]ccc2c1 [Perenosin 7] | 36500 M⁻¹ | approximately 20% | 157 M⁻¹ | 72 M⁻¹ | 507 M⁻¹ | 73.8 µM | 11 µM
CCCCCc1cc2cc(C)cc(/N=C/c3[nH]c(C)c(CCCCC)c3C)c2[nH]1 [Perenosin 6] | 172000 M⁻¹ | – | 78300 M⁻¹ | 1090 M⁻¹ | 158 M⁻¹ | > 100 µM | 4.2 µM
CCCCCc1c(C)[nH]c(/C=N/c2cc(C)cc3cc[nH]c23)c1C [Perenosin 5] | 4630 M⁻¹ | – | 2610 M⁻¹ | 331 M⁻¹ | 14 M⁻¹ | 20.3 µM | 14 µM
CCCCCc1cc2cc(C(F)(F)F)cc(/N=C/c3[nH]c(C)cc3C)c2[nH]1 [Perenosin 3] | 393000 M⁻¹ | – | 3440 M⁻¹ | 190 M⁻¹ | 2070 M⁻¹ | > 100 µM | 9.5 µM
CCCCCc1cc2cc(C)cc(/N=C/c3[nH]c(C)cc3C)c2[nH]1 [Perenosin 2] | 1.18e+06 M⁻¹ | – | 2450 M⁻¹ | 2500 M⁻¹ | 473 M⁻¹ | > 100 µM | 11.3 µM
CCCCCc1cc(/N=C/c2[nH]c(C)cc2C)c2[nH]ccc2c1 [Perenosin 1d] | 333000 M⁻¹ | – | 605 M⁻¹ | 1750 M⁻¹ | 190 M⁻¹ | 25.2 µM | 16.6 µM
CCCCCc1cc2cc(C)cc(/N=C/c3[nH]c4ccccc4c3C)c2[nH]1 [Perenosin 8] | 35500 M⁻¹ | ~10% | 142 M⁻¹ | 184 M⁻¹ | 193 M⁻¹ | > 100 µM | 38 µM
CCCc1cc2cc(C)cc(/N=C/c3[nH]c(C)cc3C)c2[nH]1 [Perenosin 4] | 468000 M⁻¹ | – | 3440 M⁻¹ | 1530 M⁻¹ | 306 M⁻¹ | > 100 µM | 9.2 µM
